The source of these data is patent US11753403B2, “EIF4E inhibitors and uses thereof” (PIC Therapeutics, Inc., priority 2020, dated 2023).

Bounds are passed on as bounds.

In this experiment the target is Human eIF4E (aa 28-217) / biotin labeled 4G2 peptide (Homo sapiens (Human), UniProt P06730). The experiment is described as follows: Human eIF4E/4G2 binding assay (TR-FRET). The note with it: Human eIF4E/4G2 TR-FRET binding assay; head says IC50, legend says EC50. The method, then: Example 5. Compound Testing in Human eIF4E/4G2 Binding Assay
Sequence of Human eIF4E (aa 28-217) / biotin labeled 4G2 peptide (P06730 28-217): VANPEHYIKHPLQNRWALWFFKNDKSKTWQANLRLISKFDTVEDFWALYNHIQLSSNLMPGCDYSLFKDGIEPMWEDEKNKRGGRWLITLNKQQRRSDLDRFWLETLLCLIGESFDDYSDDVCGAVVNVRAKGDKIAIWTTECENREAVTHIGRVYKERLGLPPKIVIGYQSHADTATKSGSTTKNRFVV
Human eIF4E (aa 28-217) with a C-terminal His-tag was expressed in E. coli in inclusion bodies. The protein was solubilized with 8 M urea and purified under denaturing conditions using nickel-charged HisTrap HP columns (GE Healthcare). The purified protein was then refolded by diluting in 20 mM Hepes pH 7.0, 0.5 M NaCl, 1 mM DTT, 1 mM EDTA, 0.5 M arginine plus 6 M urea, and then dialyzing overnight into the same buffer without the urea. The protein was further dialyzed into 20 mM Hepes, pH 6.5, 50 mM NaCl, 1 mM EDTA, 1 mM DTT, and concentrated using Hitrap SP sepharose FF columns (GE Healthcare). The concentrated protein was dialyzed into 20 mM Hepes, pH 7.0, 0.5M NaCl, 5 mM DTT and 10% glycerol, and stored at −80° C. until use.
Test compounds (3.43 mM stock in DMSO) were diluted 2-fold in series in DMSO (10 concentration points). Compound solutions (1.2 μl/well) were added into black 384-well polypropylene microplates (Matrix, Thermal Scientific). Twenty-two microliters per well of Assay Buffer (50 mM NaPi, pH 6.5, 50 mM KCl, 1 mM DTT and 0.5 mg/ml gamma globulin) and eight microliters per well of 82.5 nM purified eIF4E in Assay Buffer were added. The samples were incubated at room temperature (20-23° C.) for 4 hours. Biotin labeled 4G2 peptide (Ac-Lys-Gln-Tyr-Asp-Arg-Glu-Phe-Leu-Leu-Asp-Phe-Gln-Phe-Met-Pro-Lys(Aha-Bio)-NH2, 1.75 μM stock in DMSO) was diluted to 0.14 μM in Assay Buffer (without DTT) and 5 μl/well was added. The samples were incubated at room temperature for 20 min. Five microliters per well of 6.4 nM Eu-streptavidin (Eu-SA, Perkin Elmer) and 80 nM Allophycocyanin (APC)-anti His antibody (Columbia Biosciences) in Assay Buffer (without DTT) were then added and the samples were incubated at room temperature for 20 min.
Assay signals were monitored by reading excitation at 340 nm and emission fluorescence at 615 nm and 665 nm on an Envision reader (Perkin Elmer). Normalized TR-FRET (time-resolved fluorescence resonance energy transfer) assay signal (Rn) was calculated by the formula: Rn=[(A−Ba−C×D)/(D−Bd)]×(Dc−Bd) Where A is the fluorescence intensity of the sample at 665 nm, • D is the fluorescence intensity of the sample at 615 nm, • Ba and Bd are plate backgrounds at 665 nm and 615 nm, respectively, • Dc is the fluorescence intensity of 0.78 nM Eu-SA in the assay buffer at 615 nm The cross-talk factor (C) is determined by the following formula: C=(Ac−Ba)/(Dc−Bd) Where Ac is the fluorescence intensity of 0.78 nM Eu-SA in the assay buffer at 665 nm.
IC50 values were calculated using xLFit program (IDBS). Table 2 below lists EC50 of some compounds, wherein A represents EC50≤1 uM; B represents 1 uM<EC50≤10 uM; and C represents EC50>10 uM.
Turning to `CC(C)Cc1sc(N(CCC(=O)O)Cc2ccccc2)nc1-c1ccc(O)cc1` [I-117], the IC50 fell in the range of 1 to 10 µM.
As for `COc1cccc(-c2nc(NCC(Cc3cccc(F)c3)C(=O)O)sc2C(C)C)c1` (stereo not shown) [I-32], the figure is 1 to 10 µM; as for `CSc1sc(NCC(Cc2ccccc2)C(=O)O)nc1-c1ccc(Cl)c(Cl)c1` (stereo not shown) [I-206, 2-benzyl-3-(4-(3,4-dichlorophenyl)-5-(methylthio)thiazol-2-ylamino)propanoic acid], 1 to 10 µM; as for `CC(C)c1sc(Nc2ccsc2C(=O)NCCN)nc1-c1ccc(Cl)c(Cl)c1` [I-277], 1 to 10 µM.
Molecule `COc1ccc(-c2nc(N(CCC(=O)O)Cc3ccccc3)sc2CC(C)C)cc1Cl` [I-80] returned an IC50 of 1 to 10 µM.
As for `CCOC(=O)c1sc(NCC(Cc2ccccc2)C(=O)O)nc1-c1ccc(Cl)c(Cl)c1` (stereo not shown) [I-182, 2-benzyl-3-(4-(3,4-dichlorophenyl)-5-(ethoxycarbonyl)thiazol-2-ylamino)propanoic acid], the 50% inhibitory concentration (IC50) was in the range of 1 to 10 µM.
As for `CC(C)Cc1sc(Nc2ccc(-c3ccccc3)cc2C(=O)O)nc1-c1ccc(Cl)c(Cl)c1` [I-235], the figure is at most 1 µM; as for `CC(C)Cc1sc(N(CCC(=O)O)CC(N)=O)nc1-c1ccc(Cl)c(Cl)c1` [I-64], 1 to 10 µM.
`CC(C)c1sc(NCC(Cc2cccc(F)c2)C(=O)O)nc1-c1ccc(Cl)cc1` (stereo not shown) [I-42] came in with an IC50 of 1 to 10 µM.
As for `CC(C)Cc1sc(N(CCC(=O)O)Cc2ccccc2)nc1-c1cccc(Cl)c1` [I-79], the figure is 1 to 10 µM; as for `CC(C)Cc1sc(N(CCCCCCN)CCC(=O)O)nc1-c1ccc(Cl)c(Cl)c1` [I-148], over 10 µM.
As for `CC(C)Cc1sc(-c2ccc(C(=O)O)s2)nc1-c1ccc(Cl)c(Cl)c1` [I-229], the IC50 was at most 1 µM.
As for `CC(C)Cc1sc(N(CCC(=O)O)Cc2ccccc2)nc1-c1cccnc1` [I-83], the figure is over 10 µM.
As for `CC(C)c1sc(N(CCC(=O)O)Cc2ccccc2)nc1-c1ccc(Cl)c(Cl)c1` [I-74], the figure is at most 1 µM; as for `CC(C)Cc1sc(Nc2nnccc2C(=O)O)nc1-c1ccc(Cl)c(Cl)c1` [I-239], 1 to 10 µM.
For the molecule `CC(C)Cc1sc(Nc2cc(C(=O)O)ccn2)nc1-c1ccc(Cl)c(Cl)c1` [I-222], the IC50 lay in the range of 1 to 10 µM.
As for `CC(C)c1sc(Nc2c(C(=O)O)sc3ccccc23)nc1-c1ccc(Cl)c(C(F)(F)F)c1` [I-281], the figure is at most 1 µM.
As for `CC(C)c1sc(Nc2ncc(-c3ccccc3)cc2C(=O)O)nc1-c1ccc(Cl)c(Cl)c1` [I-259, 2-(4-(3,4-dichlorophenyl)-5-isopropylthiazol-2-ylamino)-5-phenylnicotinic acid], the figure is at most 1 µM; as for `O=C(O)C(CNc1nc(-c2ccc(Cl)c(Cl)c2)c(C2CCC2)s1)Cc1ccccc1` (stereo not shown) [I-178], 1 to 10 µM.
`CC(C)Cc1sc(NCc2cccc(O)n2)nc1-c1ccc(Cl)c(Cl)c1` [I-201, 6-((4-(3,4-dichlorophenyl)-5-isobutylthiazol-2-ylamino)methyl)pyridin-2-ol] registered an IC50 of over 10 µM.
As for `COc1cccc(-c2nc(NCC(Cc3c[nH]c4ccccc34)C(=O)O)sc2C(C)C)c1` (stereo not shown) [I-36], the figure is 1 to 10 µM; as for `CC(C)Cc1sc(N(CCC(=O)O)Cc2ccccc2)nc1-c1cccc(F)c1` [I-82], 1 to 10 µM.
For the molecule `CSCc1sc(N(CCC(=O)O)Cc2ccccc2)nc1-c1ccc(Cl)c(Cl)c1` [I-121], the IC50 is 1 to 10 µM.
In the case of `CC(C)Cc1sc(N(CCC(=O)O)Cc2cccc(C(=O)NCCN)c2)nc1-c1ccc(Cl)c(Cl)c1` [I-205, 3-((3-(2-aminoethylcarbamoyl)benzyl)(4-(3,4-dichlorophenyl)-5-isobutylthiazol-2-yl)amino)propanoic acid], the IC50 is over 10 µM.
As for `CC(C)Cc1sc(N(CCC(=O)O)Cc2cccnc2)nc1-c1ccc(Cl)c(Cl)c1` [I-62], the figure is 1 to 10 µM; as for `CC(C)c1sc(N(CCC(=O)O)Cc2ccccc2)nc1-c1ccc(F)c(Cl)c1` [I-78], 1 to 10 µM; as for `CC(C)Cc1sc(N2CCN(c3ccccc3)C(C(=O)O)C2)nc1-c1ccc(Cl)c(Cl)c1` (stereo not shown) [I-170], 1 to 10 µM.
As to `CC(C)Cc1sc(N(CCC(=O)N2CCN(C)CC2)Cc2ccccc2)nc1-c1ccc(Cl)c(Cl)c1` [I-133, 3-(benzyl(4-(3,4-dichlorophenyl)-5-isobutylthiazol-2-yl)amino)-1-(4-methylpiperazin-1-yl)propan-1-one], the concentration for half-maximal inhibition (IC50) is over 10 µM.
As for `COc1ccnc(Nc2nc(-c3ccc(Cl)c(Cl)c3)c(CC(C)C)s2)c1C(=O)O` [I-243], the figure is at most 1 µM; as for `CC(C)Cc1sc(N(CCC(=O)O)CC2CCCO2)nc1-c1ccc(Cl)c(Cl)c1` (stereo not shown) [I-69], 1 to 10 µM.
The molecule `CC(C)Cc1sc(Nc2ccc(F)c(C(=O)O)c2)nc1-c1ccc(Cl)c(Cl)c1` [I-209] had a concentration for half-maximal inhibition (IC50) of at most 1 µM.
As for `CC(C)Cc1sc(N(CCCN)Cc2ccccc2)nc1-c1ccc(Cl)c(Cl)c1` [I-191, N^1-benzyl-N^1-(4-(3,4-dichlorophenyl)-5-isobutylthiazol-2-yl)propane-1,3-diamine], the figure is 1 to 10 µM; as for `CC(C)Cc1sc(NCC(NC(=O)c2ccccc2)C(=O)O)nc1-c1ccc(Cl)c(Cl)c1` (stereo not shown) [I-136, 2-benzamido-3-(4-(3,4-dichlorophenyl)-5-isobutylthiazol-2-ylamino)propanoic acid], 1 to 10 µM.
`Cc1cc(Nc2nc(-c3ccc(Cl)c(Cl)c3)c(CC(C)C)s2)cc(C(=O)O)c1` [I-214] gave an IC50 of 1 to 10 µM.
As for `CC(C)Cc1sc(N(CCC(=O)O)Cc2cccc3c2OCO3)nc1-c1ccc(Cl)c(Cl)c1` [I-48], the figure is at most 1 µM.
As for `CC(C)Cc1sc(N2CCN(C(=O)c3cccnc3)C(C(=O)O)C2)nc1-c1ccc(Cl)c(Cl)c1` (stereo not shown) [I-250], the figure is 1 to 10 µM; as for `CC(C)Cc1sc(N(CCC(=O)N2CCC(CN)CC2)Cc2ccccc2)nc1-c1ccc(Cl)c(Cl)c1` [I-135], 1 to 10 µM; as for `CC(C)Cc1sc(Nc2cncc(C(=O)O)c2)nc1-c1ccc(Cl)c(Cl)c1` [I-221, 5-(4-(3,4-dichlorophenyl)-5-isobutylthiazol-2-ylamino)nicotinic acid], 1 to 10 µM.
`CC(C)c1sc(Nc2ncc(-c3ccccc3)cc2C(=N)N)nc1-c1ccc(Cl)c(Cl)c1` [I-285] displayed an IC50 of over 10 µM.
The molecule `O=C(O)C(CNc1nc(-c2ccc(Cl)c(Cl)c2)c(C2CC2)s1)Cc1ccc2[nH]ccc2c1` (stereo not shown) [I-17] showed a half-inhibitory concentration (IC50) of at most 1 µM.
`CC(C)Cc1sc(NCC(Cc2cccc(O)c2)C(=O)O)nc1-c1ccc(Cl)c(Cl)c1` (stereo not shown) [I-21] gave an IC50 of 1 to 10 µM.
As for `O=C(O)c1cccc(-c2nc(Cc3ccc(Cl)c(Cl)c3)cs2)c1` [I-223, 3-(4-(3,4-dichlorobenzyl)thiazol-2-yl)benzoic acid], the figure is 1 to 10 µM; as for `CC(C)Cc1sc(NCC(CCCCN(C)C)C(=O)O)nc1-c1ccc(Cl)c(Cl)c1` (stereo not shown) [I-145, 2-((4-(3,4-dichlorophenyl)-5-isobutylthiazol-2-ylamino)methyl)-6-(dimethylamino) hexanoic acid], over 10 µM.
Consider `CC(C)Cc1sc(N(CCC(=O)O)Cc2cccs2)nc1-c1ccc(Cl)c(Cl)c1` [I-65], for which the IC50 is at most 1 µM.
Take `CC(C)c1sc(Nc2ncc(-c3ccccn3)cc2C(=O)O)nc1-c1ccc(Cl)c(Cl)c1` [I-282, 6′-(4-(3,4-dichlorophenyl)-5-isopropylthiazol-2-ylamino)-2,3′-bipyridine-5′-carboxylic acid]: the IC50 was at most 1 µM.
As for `CC(C)Cc1sc(NCC(NC(=O)OC(C)(C)C)C(=O)O)nc1-c1ccc(Cl)c(Cl)c1` (stereo not shown) [I-137, 2-(tert-butoxycarbonylamino)-3-(4-(3,4-dichlorophenyl)-5-isobutylthiazol-2-ylamino) propanoic acid], the figure is 1 to 10 µM; as for `CC(C)Cc1sc(N(CCC(=O)O)CCc2ccccc2)nc1-c1ccc(Cl)c(Cl)c1` [I-52], at most 1 µM.
Take `COc1ccc(-c2nc(Nc3ncc(C(F)(F)F)cc3C(=O)O)sc2C(C)C)cc1Cl` [I-326]: the IC50 was at most 1 µM.
In turn, `CC(C)Cc1sc(-c2ccc(-c3cccnc3)c(C(=O)O)c2)nc1-c1ccc(Cl)c(Cl)c1` [I-226] displayed an IC50 of at most 1 µM.
